{"source": "patent US20250163104A1", "about": "“MACROCYCLIC IMMUNOMODULATORS” (priority 2021, published 2025)", "note": "Where a SMILES comes first, the peptide text is derived from it. Bridges are numbered along the chain shown (N, C = ends). [ ]: non-standard residue; d: D form. The star is where a group is joined. Phe(4-COOH) = N[C@@H](Cc1ccc(C(=O)O)cc1)C(=O)O; Bip = N[C@@H](Cc1ccc(-c2ccccc2)cc1)C(=O)O; Phe(3-Me) = Cc1cccc(C[C@H](N)C(=O)O)c1; 4Pal = N[C@@H](Cc1ccncc1)C(=O)O; Cha = N[C@@H](CC1CCCCC1)C(=O)O; Carboxymethyl = O=C(O)C*; Orn = NCCC[C@H](N)C(=O)O; Dab = NCC[C@H](N)C(=O)O; Dap = NC[C@H](N)C(=O)O"}
{"target": "T1, human PD-1 / PD-L1-Ig binding on Jurkat cell line over-expressing human PD-1 (Jurkat-PD-1) (Homo sapiens, UniProt Q15116)", "T1 construct": "expressed in transfected cells; host or cells: Jurkat", "T1 sequence (Q15116 25-288)": "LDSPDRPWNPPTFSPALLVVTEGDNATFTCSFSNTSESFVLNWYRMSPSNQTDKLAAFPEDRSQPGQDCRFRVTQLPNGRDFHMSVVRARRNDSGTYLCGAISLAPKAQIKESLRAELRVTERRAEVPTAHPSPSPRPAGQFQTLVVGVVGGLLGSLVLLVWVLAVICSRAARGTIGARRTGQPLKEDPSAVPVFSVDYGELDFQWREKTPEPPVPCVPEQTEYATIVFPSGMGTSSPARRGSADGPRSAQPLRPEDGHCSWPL", "assay": "Jurkat-PD-1 Cell Binding High-Content Screening Assay (CBA)", "format": "cell-based", "details": "Jurkat-PD-1 cells, PE-labeled PD-L1-Ig 20 nM final; read-out: Jurkat HPD1_PDL1 IC50", "summary_of_the_method": "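Jurkat-hPD-1 cells in DMEM with 10% fetal calf serum receive test compound and are held at 37° C for 2 h. PE-labeled PD-L1-Ig is added at 20 nM final and left for 1 hour. Cells are then fixed and Hoechst-stained, and binding is measured by imaging.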", "units": {"IC50": "nM"}}
{"smiles": "CC(C)C[C@H]1NC(=O)[C@H](CN)NC(=O)[C@H](C(C)C)NC(=O)[C@H](Cc2ccc(-c3ccccc3)cc2)NC(=O)[C@H](C(C)C)NC(=O)[C@H](Cc2c[nH]c3ccccc23)NC(=O)[C@H](CC(=O)O)NC(=O)[C@H](Cc2ccc(O)cc2)NC(=O)[C@H](Cc2ccccc2)NC(=O)CSC[C@@H](C(=O)NCC(N)=O)NC(=O)[C@H](CO)NC(=O)[C@H](C(C)C)NC(=O)[C@H](CC2CCCCC2)NC(=O)[C@H](CC(N)=O)NC1=O", "note": "[Compound 1412] ({CH2CO}-FYDWV[Bip]V[Dap][dL]N[Cha]VSCG-NH2; thioether N-14)", "IC50": 26.9}
{"smiles": "CC(C)C[C@H]1NC(=O)[C@H](CN)NC(=O)[C@H](C(C)C)NC(=O)[C@H](Cc2ccc(-c3ccccc3)cc2)NC(=O)[C@H](C(C)C)NC(=O)[C@H](Cc2c[nH]c3ccccc23)NC(=O)[C@H](CC(=O)O)NC(=O)[C@H](Cc2ccc(C(=O)O)cc2)NC(=O)[C@H](Cc2ccc(OCC(=O)O)cc2)NC(=O)CSC[C@@H](C(=O)NCC(N)=O)NC(=O)[C@H](CO)NC(=O)[C@H](C(C)C)NC(=O)[C@H](CC2CCCCC2)NC(=O)[C@H](CC(N)=O)NC1=O", "note": "[Compound 1413] ({CH2CO}-Y(Carboxymethyl)[Phe(4-COOH)]DWV[Bip]V[Dap][dL]N[Cha]VSCG-NH2; thioether N-14)", "IC50": 8.8}
{"smiles": "Cc1cccc(C[C@@H]2NC(=O)[C@H](CC(=O)O)NC(=O)[C@H](Cc3ccc(C(=O)O)cc3)NC(=O)[C@H](Cc3ccc(OCC(=O)O)cc3)NC(=O)CSC[C@@H](C(=O)N[C@@H](C)C(N)=O)NC(=O)[C@H]([C@@H](C)O)NC(=O)[C@H](C(C)C)NC(=O)[C@H](CC3CCCCC3)NC(=O)[C@H](CCN)NC(=O)[C@@H](CC(C)C)NC(=O)[C@H](CCCN)NC(=O)[C@H](CCCN)NC(=O)[C@H](Cc3ccc(-c4ccccc4)cc3)NC(=O)[C@H](C(C)C)NC2=O)c1", "note": "[Compound 1414]", "IC50": 9.9}
{"smiles": "Cc1cccc(C[C@@H]2NC(=O)[C@H](CC(=O)O)NC(=O)[C@H](Cc3ccc(C(=O)O)cc3)NC(=O)[C@H](Cc3ccc(OCC(=O)O)cc3)NC(=O)CSC[C@@H](C(=O)N[C@@H](C)C(N)=O)NC(=O)[C@H]([C@@H](C)O)NC(=O)[C@H](C(C)C)NC(=O)[C@H](CC3CCCCC3)NC(=O)[C@H](CCN)NC(=O)[C@@H](CC(C)C)NC(=O)[C@H](CCCN)NC(=O)[C@H](CCN)NC(=O)[C@H](Cc3ccc(-c4ccccc4)cc3)NC(=O)[C@H](C(C)C)NC2=O)c1", "note": "[Compound 1415]", "IC50": 13.8}
{"smiles": "Cc1cccc(C[C@@H]2NC(=O)[C@H](CC(=O)O)NC(=O)[C@H](Cc3ccc(C(=O)O)cc3)NC(=O)[C@H](Cc3ccc(OCC(=O)O)cc3)NC(=O)CSC[C@@H](C(=O)N[C@@H](C)C(N)=O)NC(=O)[C@H]([C@@H](C)O)NC(=O)[C@H](C(C)C)NC(=O)[C@H](CC3CCCCC3)NC(=O)[C@H](CCN)NC(=O)[C@@H](CC(C)C)NC(=O)[C@H](CCCN)NC(=O)[C@H](CN)NC(=O)[C@H](Cc3ccc(-c4ccccc4)cc3)NC(=O)[C@H](C(C)C)NC2=O)c1", "note": "[Compound 1416]", "IC50": 8.5}
{"smiles": "Cc1cccc(C[C@@H]2NC(=O)[C@H](CC(=O)O)NC(=O)[C@H](Cc3ccc(C(=O)O)cc3)NC(=O)[C@H](Cc3ccncc3)NC(=O)CSC[C@@H](C(=O)N[C@@H](C)C(N)=O)NC(=O)[C@H]([C@@H](C)O)NC(=O)[C@H](C(C)C)NC(=O)[C@H](CC3CCCCC3)NC(=O)[C@H](CCN)NC(=O)[C@@H](CC(C)C)NC(=O)[C@H](CCCN)NC(=O)[C@H](CCC(=O)O)NC(=O)[C@H](Cc3ccc(-c4ccccc4)cc3)NC(=O)[C@H](C(C)C)NC2=O)c1", "note": "[Compound 1417]", "IC50": 7}
{"smiles": "Cc1cccc(C[C@@H]2NC(=O)[C@H](CC(=O)O)NC(=O)[C@H](Cc3ccncc3)NC(=O)[C@H](CN)NC(=O)CSC[C@@H](C(=O)N[C@@H](C)C(N)=O)NC(=O)[C@H]([C@@H](C)O)NC(=O)[C@H](C(C)C)NC(=O)[C@H](CC3CCCCC3)NC(=O)[C@H](CCN)NC(=O)[C@@H](CC(C)C)NC(=O)[C@H](CCCN)NC(=O)[C@H](CCC(=O)O)NC(=O)[C@H](Cc3ccc(-c4ccccc4)cc3)NC(=O)[C@H](C(C)C)NC2=O)c1", "note": "[Compound 1418] ({CH2CO}-[Dap][4Pal]D[Phe(3-Me)]V[Bip]E[Orn][dL][Dab][Cha]VTCA-NH2; thioether N-14)", "IC50": 8.1}
{"smiles": "Cc1cccc(C[C@@H]2NC(=O)[C@H](CC(=O)O)NC(=O)[C@H](Cc3ccncc3)NC(=O)[C@H](Cc3ccc(OCC(=O)O)cc3)NC(=O)CSC[C@@H](C(=O)N[C@@H](C)C(N)=O)NC(=O)[C@H]([C@@H](C)O)NC(=O)[C@H](C(C)C)NC(=O)[C@H](CC3CCCCC3)NC(=O)[C@H](CCN)NC(=O)[C@@H](CC(C)C)NC(=O)[C@H](CCCN)NC(=O)[C@H](CCC(=O)O)NC(=O)[C@H](Cc3ccc(-c4ccccc4)cc3)NC(=O)[C@H](C(C)C)NC2=O)c1", "note": "[Compound 1419] ({CH2CO}-Y(Carboxymethyl)[4Pal]D[Phe(3-Me)]V[Bip]E[Orn][dL][Dab][Cha]VTCA-NH2; thioether N-14)", "IC50": 7.2}
{"smiles": "Cc1cccc(C[C@@H]2NC(=O)[C@H](CC(=O)O)NC(=O)[C@H](Cc3ccc(O)cc3)NC(=O)[C@H](CC(N)=O)NC(=O)CSC[C@@H](C(=O)N[C@@H](C)C(N)=O)NC(=O)[C@H]([C@@H](C)O)NC(=O)[C@H](C(C)C)NC(=O)[C@H](CC3CCCCC3)NC(=O)[C@H](CCN)NC(=O)[C@@H](CC(C)C)NC(=O)[C@H](CCCN)NC(=O)[C@H](CCC(=O)O)NC(=O)[C@H](Cc3ccc(-c4ccccc4)cc3)NC(=O)[C@H](C(C)C)NC2=O)c1", "note": "[Compound 1420] ({CH2CO}-NYD[Phe(3-Me)]V[Bip]E[Orn][dL][Dab][Cha]VTCA-NH2; thioether N-14)", "IC50": 7.5}
{"smiles": "CC(C)C[C@H]1NC(=O)[C@H](CCCN)NC(=O)[C@H](CCC(=O)O)NC(=O)[C@H](Cc2ccc(-c3ccccc3)cc2)NC(=O)[C@H](C(C)C)NC(=O)[C@H](Cc2c[nH]c3ccccc23)NC(=O)[C@H](CC(=O)O)NC(=O)[C@H](Cc2ccncc2)NC(=O)[C@H](Cc2ccc(OCC(=O)O)cc2)NC(=O)CSC[C@@H](C(=O)N[C@@H](C)C(N)=O)NC(=O)[C@H]([C@@H](C)O)NC(=O)[C@H](C(C)C)NC(=O)[C@H](CC2CCCCC2)NC(=O)[C@H](CCN)NC1=O", "note": "[Compound 1423]", "IC50": 9.9}
{"smiles": "CC(C)C[C@H]1NC(=O)[C@H](CCCN)NC(=O)[C@H](CCC(=O)O)NC(=O)[C@H](Cc2ccc(-c3ccccc3)cc2)NC(=O)[C@H](C(C)C)NC(=O)[C@H](Cc2c[nH]c3ccccc23)NC(=O)[C@H](CC(=O)O)NC(=O)[C@H](Cc2ccc(O)cc2)NC(=O)[C@H](CC(N)=O)NC(=O)CSC[C@@H](C(=O)N[C@@H](C)C(N)=O)NC(=O)[C@H]([C@@H](C)O)NC(=O)[C@H](C(C)C)NC(=O)[C@H](CC2CCCCC2)NC(=O)[C@H](CCN)NC1=O", "note": "[Compound 1424] ({CH2CO}-NYDWV[Bip]E[Orn][dL][Dab][Cha]VTCA-NH2; thioether N-14)", "IC50": 14.7}
{"smiles": "CC(C)C[C@H]1NC(=O)[C@H](CCCN)NC(=O)[C@H](CCC(=O)O)NC(=O)[C@H](Cc2ccc(-c3ccccc3)cc2)NC(=O)[C@H](C(C)C)NC(=O)[C@H](Cc2c[nH]c3ccccc23)NC(=O)[C@H](CC(=O)O)NC(=O)[C@H](Cc2ccc(OCC(=O)O)cc2)NC(=O)[C@H](CN)NC(=O)CSC[C@@H](C(=O)N[C@@H](C)C(N)=O)NC(=O)[C@H]([C@@H](C)O)NC(=O)[C@H](C(C)C)NC(=O)[C@H](CC2CCCCC2)NC(=O)[C@H](CCN)NC1=O", "note": "[Compound 1425]", "IC50": 16.8}
{"smiles": "Cc1cccc(C[C@@H]2NC(=O)[C@H](CC(=O)O)NC(=O)[C@H](Cc3ccc(C(=O)O)cc3)NC(=O)[C@H](Cc3ccc(OCC(=O)O)cc3)NC(=O)CSC[C@@H](C(=O)N[C@@H](C)C(N)=O)NC(=O)[C@H]([C@@H](C)O)NC(=O)[C@H](C(C)C)NC(=O)[C@H](CC3CCCCC3)NC(=O)[C@H](CCN)NC(=O)[C@@H](CC(C)C)NC(=O)[C@H](CCCN)NC(=O)[C@H](CCC(=O)O)NC(=O)[C@H](Cc3ccc(-c4ccccc4)cc3)NC(=O)[C@H](C(C)C)NC2=O)c1", "note": "[Compound 1426]", "IC50": 23.3}
{"smiles": "CC(C)C[C@H]1NC(=O)[C@H](CCCN)NC(=O)[C@H](CCC(=O)O)NC(=O)[C@H](Cc2ccc(-c3ccccc3)cc2)NC(=O)[C@H](C(C)C)NC(=O)[C@H](Cc2c[nH]c3ccccc23)NC(=O)[C@H](CC(=O)O)NC(=O)[C@H](Cc2ccc(C(=O)O)cc2)NC(=O)[C@H](Cc2ccc(OCC(=O)O)cc2)NC(=O)CSC[C@@H](C(=O)N[C@@H](C)C(N)=O)NC(=O)[C@H]([C@@H](C)O)NC(=O)[C@H](C(C)C)NC(=O)[C@H](CC2CCCCC2)NC(=O)[C@H](CCN)NC1=O", "note": "[Compound 1427]", "IC50": 9.7}
{"smiles": "Cc1cccc(C[C@@H]2NC(=O)[C@H](CC(=O)O)NC(=O)[C@H](Cc3ccc(C(=O)O)cc3)NC(=O)[C@H](Cc3ccncc3)NC(=O)CSC[C@@H](C(=O)N[C@@H](C)C(N)=O)NC(=O)[C@H]([C@@H](C)O)NC(=O)[C@H](C(C)C)NC(=O)[C@H](CC3CCCCC3)NC(=O)[C@H](CCN)NC(=O)[C@@H](Cc3ccccc3)NC(=O)[C@H](CCCN)NC(=O)[C@H](CCC(=O)O)NC(=O)[C@H](Cc3ccc(-c4ccccc4)cc3)NC(=O)[C@H](C(C)C)NC2=O)c1", "note": "[Compound 1428] ({CH2CO}-[4Pal][Phe(4-COOH)]D[Phe(3-Me)]V[Bip]E[Orn][dF][Dab][Cha]VTCA-NH2; thioether N-14)", "IC50": 18.4}
{"smiles": "Cc1cccc(C[C@@H]2NC(=O)[C@H](CC(=O)O)NC(=O)[C@H](Cc3ccncc3)NC(=O)[C@H](CN)NC(=O)CSC[C@@H](C(=O)N[C@@H](C)C(N)=O)NC(=O)[C@H]([C@@H](C)O)NC(=O)[C@H](C(C)C)NC(=O)[C@H](CC3CCCCC3)NC(=O)[C@H](CCN)NC(=O)[C@@H](Cc3ccccc3)NC(=O)[C@H](CCCN)NC(=O)[C@H](CCC(=O)O)NC(=O)[C@H](Cc3ccc(-c4ccccc4)cc3)NC(=O)[C@H](C(C)C)NC2=O)c1", "note": "[Compound 1429] ({CH2CO}-[Dap][4Pal]D[Phe(3-Me)]V[Bip]E[Orn][dF][Dab][Cha]VTCA-NH2; thioether N-14)", "IC50": 9.5}
